Non-standard residues stand in square brackets, D forms with d. Residues, ends and D or L forms follow the SMILES beside them. Tic = O=C(O)[C@@H]1Cc2ccccc2CN1; Orn = NCCC[C@H](N)C(=O)O; Aze = O=C(O)[C@@H]1CCN1; Aib = CC(C)(N)C(=O)O
What follows are compounds tested against T1, human UTR2 receptor (Homo sapiens, UniProt Q9UKP6) (assay: Calcium mobilization assay, agonist activity at urotensin receptor). Conditions: mouse pre-B 300-19 cells transfected with human UTR2, read-out: EC50% (nM) ± SD, Urotensin receptor.
T1 construct: expressed in transfected cells; host or cells: mouse pre-B cell line 300-19
T1 sequence (Q9UKP6 1-389): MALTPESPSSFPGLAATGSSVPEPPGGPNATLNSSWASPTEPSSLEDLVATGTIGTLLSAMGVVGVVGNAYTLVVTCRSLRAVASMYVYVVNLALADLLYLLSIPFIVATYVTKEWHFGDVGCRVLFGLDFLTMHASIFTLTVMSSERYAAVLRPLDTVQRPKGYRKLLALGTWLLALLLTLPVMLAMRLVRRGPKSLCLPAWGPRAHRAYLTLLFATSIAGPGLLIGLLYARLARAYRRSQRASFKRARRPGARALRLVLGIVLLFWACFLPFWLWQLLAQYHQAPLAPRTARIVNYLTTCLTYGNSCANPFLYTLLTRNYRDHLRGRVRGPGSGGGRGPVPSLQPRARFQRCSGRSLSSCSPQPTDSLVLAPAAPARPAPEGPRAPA
Assay type: cell-based
Description: (§1) The mouse pre-B cell line 300-19 was stably transfected with the cDNA encoding the human UTR2 receptor (GenBank Acc#NM_018949), and expression was confirmed with a positive calcium signal in response to human urotensin (Sigma Aldrich). Increases in intracellular calcium were monitored using a Flexstation 384 (Molecular Devices, Sunnyvale, Calif.). The cells were batch loaded with the Calcium 3 Assay kit (Molecular Devices) in assay buffer (Hanks Balanced salt solution, HBSS, 20 mM HEPES, pH 7.4, 0.1% BSA) for 1 h at room temperature and labeled cells were dispensed into either black 96 well or 384 well assay plates (Greiner). Calcium mobilization induced by urotensin or compounds was measured in the Flexstation 384 (excitation, […]) for 70 seconds. Agonist activity was determined by direct addition of ligand or peptides, while antagonists were identified by pre-incubation of compounds with cells prior to urotensin addition. A dose response curve (compound concentration versus % maximum response for urotensin) was determined for each active agonist and antagonist and was fitted to a four parameter logistic equation using SoftmaxPro 4.6 (Molecular Devices), from which EC50% and IC50% values were calculated.
An EC50 of 134 ± 61 nM was found for `NCCCC[C@@H]1NC(=O)[C@H](Cc2c[nH]c3ccccc23)NC(=O)[C@H](CCC(N)=O)NC(=O)[C@@H]2CCN2C(=O)[C@H]2CCCN2C(=O)[C@H](Cc2ccc(O)cc2)NC1=O` [Example 6] (cyclo(QWKY[dP][Aze])) in this work.
An EC50 of 286 ± 66 nM was found for `C[C@@H](O)[C@@H]1NC(=O)[C@@H]2CCN2C(=O)[C@H]2CCCN2C(=O)[C@H](Cc2ccc(O)cc2)NC(=O)[C@H](CCCCN)NC(=O)[C@H](Cc2c[nH]c3ccccc23)NC1=O` [Example 7] (cyclo(TWKY[dP][Aze])) in this work.
An EC50 of 18 ± 3 nM was found for `COc1ccc2c3c1CNC(=O)[C@H](Cc1ccc(O)cc1)NC(=O)[C@H](CCCCN)NC(=O)[C@H](Cc1c[nH]c4ccccc14)NC(=O)[C@H](Cc1ccccc1)NC(=O)Cc1c(OC)ccc(c1O3)C2(C)C` [Example 8] in this work.
An EC50 of 82 ± 13 nM was found for `NCCCC[C@@H]1NC(=O)[C@H](Cc2c[nH]c3ccccc23)NC(=O)[C@H](CCC(N)=O)NC(=O)[C@@H]2Cc3ccccc3CN2C(=O)[C@H]2CCCN2C(=O)[C@H](Cc2ccc(O)cc2)NC1=O` [Example 3] (cyclo(QWKY[dP][Tic])) in this work.
An EC50 of 160 ± 81 nM was found for `COc1ccc2c3c1CNC(=O)[C@H](Cc1ccc(O)cc1)NC(=O)[C@H](CCCCN)NC(=O)[C@H](Cc1c[nH]c4ccccc14)NC(=O)[C@H]([C@@H](C)O)NC(=O)Cc1c(OC)ccc(c1O3)C2(C)C` [Example 9] in this work.
An EC50 of 54 ± 12 nM was found for `NCCCC[C@@H]1NC(=O)[C@H](Cc2c[nH]c3ccccc23)NC(=O)[C@H](Cc2ccccc2)NC(=O)[C@@H]2Cc3ccccc3CN2C(=O)[C@H]2CCCN2C(=O)[C@H](Cc2ccc(O)cc2)NC1=O` [Example 1] (cyclo(FWKY[dP][Tic])) in this work.
An EC50 of 192 ± 14 nM was found for `CC[C@H](C)[C@@H]1NC(=O)Cc2c(OC)ccc3c2Oc2c(ccc(OC)c2CNC(=O)[C@H](Cc2ccc(O)cc2)NC(=O)[C@H](CCCCN)NC(=O)[C@H](Cc2c[nH]c4ccccc24)NC1=O)C3(C)C` [Example 11] in this work.
An EC50 of 274 ± 5 nM was found for `COc1ccc2c3c1CNC(=O)[C@H](Cc1ccc(O)cc1)NC(=O)[C@H](CCCCN)NC(=O)[C@H](Cc1c[nH]c4ccccc14)NC(=O)[C@H](CCC(=O)O)NC(=O)Cc1c(OC)ccc(c1O3)C2(C)C` [Example 13] in this work.
An EC50 of 189 ± 13 nM was found for `CC[C@H](C)[C@@H]1NC(=O)C[C@@H]2NC(=O)[C@@H]3C[C@@H](CN3C2=O)NC(=O)[C@H](Cc2ccc(O)cc2)NC(=O)[C@H](CCCCN)NC(=O)[C@H](Cc2c[nH]c3ccccc23)NC1=O` [Example 14] in this work.
An EC50 of 170 ± 40 nM was found for `COc1ccc2c3c1CNC(=O)[C@H](Cc1ccc(O)cc1)NC(=O)[C@H](CCCCN)NC(=O)[C@H](Cc1c[nH]c4ccccc14)NC(=O)[C@H](CCC(N)=O)NC(=O)Cc1c(OC)ccc(c1O3)C2(C)C` [Example 10] in this work.
An EC50 of 68 ± 32 nM was found for `CC[C@H](C)[C@@H]1NC(=O)[C@@H]2Cc3ccccc3CN2C(=O)[C@H]2CCCN2C(=O)[C@H](Cc2ccc(O)cc2)NC(=O)[C@H](CCCCN)NC(=O)[C@H](Cc2c[nH]c3ccccc23)NC1=O` [Example 2] (cyclo(IWKY[dP][Tic])) in this work.
An EC50 of 45 ± 22 nM was found for `CC[C@H](C)[C@@H]1NC(=O)[C@@H]2CCN2C(=O)[C@H]2CCCN2C(=O)[C@H](Cc2ccc(O)cc2)NC(=O)[C@H](CCCCN)NC(=O)[C@H](Cc2c[nH]c3ccccc23)NC1=O` [Example 5] (cyclo(IWKY[dP][Aze])) in this work.
An EC50 of 20 ± 5 nM was found for `NCCCC[C@@H]1NC(=O)[C@H](Cc2c[nH]c3ccccc23)NC(=O)[C@H](Cc2ccccc2)NC(=O)[C@@H]2CCN2C(=O)[C@H]2CCCN2C(=O)[C@H](Cc2ccc(O)cc2)NC1=O` [Example 4] (cyclo(FWKY[dP][Aze])) in this work.
An EC50 of 218 nM was found for `COc1ccc2c3c1CNC(=O)[C@H](Cc1c[nH]cn1)NC(=O)[C@H](Cc1ccc(O)cc1)NC(=O)[C@H](CCCCN)NC(=O)[C@H](Cc1c[nH]c4ccccc14)NC(=O)Cc1c(OC)ccc(c1O3)C2(C)C` [Example 12] in this work.

The compounds below were run against T1, human UTR2 receptor (assay: Calcium mobilization assay, antagonist activity at urotensin receptor). Conditions: pre-incubation before urotensin, 300-19 cells with human UTR2, read-out: IC50% (μM) ± SD, Urotensin receptor.
Assay type: cell-based
Description: as §1
An IC50 of 6.2 ± 1.5 µM was found for `CC[C@H](C)[C@@H]1NC(=O)[C@@H]2Cc3ccccc3CN2C(=O)[C@H]2CCCN2C(=O)[C@H]([C@@H](C)CC)NC(=O)C(C)(C)NC(=O)[C@@H](CCCNC(=N)N)NC1=O` [Example 19] (cyclo(I[dR][Aib]I[dP][Tic])) in this work.

Each compound was assayed against T2, human CCR10 (Homo sapiens, UniProt P46092) (assay: Calcium flux antagonism assay with human CCL27). Conditions: 300-19 cells with human CCR10, human CCL27, read-out: IC50% (μM), CCR10 receptor.
T2 construct: expressed in transfected cells; host or cells: mouse pre-B cell line 300-19
T2 sequence (P46092 1-362): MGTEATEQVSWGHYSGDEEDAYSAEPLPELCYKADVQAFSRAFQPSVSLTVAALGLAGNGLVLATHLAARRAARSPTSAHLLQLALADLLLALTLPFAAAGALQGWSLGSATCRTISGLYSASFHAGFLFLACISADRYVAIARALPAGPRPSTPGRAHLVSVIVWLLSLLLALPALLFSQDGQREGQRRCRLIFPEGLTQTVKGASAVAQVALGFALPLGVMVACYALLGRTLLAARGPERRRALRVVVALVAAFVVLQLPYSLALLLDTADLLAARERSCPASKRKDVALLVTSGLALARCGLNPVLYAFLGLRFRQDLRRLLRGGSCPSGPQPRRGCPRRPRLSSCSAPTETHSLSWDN
Assay type: cell-based
Description: as §1
Peptides for CCR10 (Marchese et. al. 1994, Homey et. al.) and CXCR3 (Loetscher et. al. 1998, Marchese et. al. 1995) antagonism were assayed in a mouse pre-B cell line 300-19 stably transfected with either human CCR10 or CXCR3 (Marchese et. al. 1995). Antagonism at each receptor was measured with a calcium flux assay in these cells as described above for UTR2 assays using human CCL27 and human CXCL10 (Cole et. al.) for CCR10 and CXCR3 respectively.
Selectivity was measured using the calcium flux assay on a panel of human chemokine receptor bearing cell lines (CCR1, CCR2, CCR3, CCR4, CCR5, CCR6, CCR7, CCR8, CCR9, CCR10, CXCR1, CXCR2, CXCR2, CXCR4, CXCR6 and CXCCR1) using the same method as above
An IC50 of 0.31 µM was found for `CC(C)[C@H]1NC(=O)[C@H](Cc2c[nH]c3ccccc23)NC(=O)[C@@H]2Cc3ccccc3CN2C(=O)[C@H]2CCCN2C(=O)[C@H](CCCN)NC(=O)[C@H](Cc2c[nH]c3ccccc23)NC1=O` [Example 17] (cyclo(W[dV]W[Orn][dP][Tic])) in this work.
An IC50 of 0.29 µM was found for `CC(C)[C@H]1NC(=O)[C@H](Cc2c[nH]c3ccccc23)NC(=O)[C@@H]2Cc3ccccc3CN2C(=O)[C@H]2CCCN2C(=O)[C@H](CCCCN)NC(=O)[C@H](Cc2c[nH]c3ccccc23)NC1=O` [Example 18] (cyclo(W[dV]WK[dP][Tic])) in this work.

— patent publication US10000535B2, “Template-fixed peptidomimetics” (POLYPHOR LTD., priority 2007, dated 2018)
